Laboratory results from US20050227961A1, “Compositions and methods for treatment of neuropathic pain, fibromyalgia and chronic fatigue syndrome” (Vela Pharmaceuticals, Inc., priority 2004, published 2005).

Tested on: lesioned hindpaw of rats suffering from neuropathic pain
Assay: Neuropathic pain, thermal stimulation model in the rat (Chung spinal nerve ligature), paw withdrawal latency
Settings: for Paw Withdrawal Latent (seconds) for Lesioned Paw, mean ± SEM / Paw withdrawal latency, % change compared with vehicle control: thermal stimulation

`CN1CC[C@]23c4c5ccc(O)c4O[C@H]2[C@@H](O)C=C[C@H]3[C@H]1C5` [Morphine] was tested, and the “Paw Withdrawal Latent (seconds) for Lesioned Paw, mean ± SEM” value (“Paw Withdrawal Latent … mean ± SEM” below) (128 mg/kg p.o., at 30 min) was 23.5 ± 6.4 s, the “Paw withdrawal latency, % change compared with vehicle control” value (shortened to “Paw withdrawal latency, % change”) (128 mg/kg p.o., at 30 min) was “+104%” and the “Paw Withdrawal Latent … mean ± SEM” value (128 mg/kg p.o., at 1 h) was 40.5 ± 3.0 s. For the same molecule, the “Paw withdrawal latency, % change” value (128 mg/kg p.o., at 1 h) was “+185%”, the “Paw Withdrawal Latent … mean ± SEM” value (128 mg/kg p.o., at 2 h) was 16.7 ± 6.0 s and the “Paw withdrawal latency, % change” value (128 mg/kg p.o., at 2 h) was −7%. The “Paw Withdrawal Latent … mean ± SEM” value (128 mg/kg p.o., at 4 h) was 21.7 ± 5.7 s and the “Paw withdrawal latency, % change” value (128 mg/kg p.o., at 4 h) was “+10%”.
For `CN1c2ccccc2C(NCCCCCCC(=O)O)c2ccc(Cl)cc2S1(=O)=O` (stereo not drawn) [Tianeptine, 7-[(3-chloro-6,11-dihydro-6-methyl-dibenzo[c,f][1,2]thiazepin-11-yl)amino]heptanoic acid S,S-dioxide], the “Paw Withdrawal Latent … mean ± SEM” value (3 mg/kg p.o., at 30 min) was 12.7 ± 4.9 s, the “Paw withdrawal latency, % change” value (3 mg/kg p.o., at 30 min) was “+10%” and the “Paw Withdrawal Latent … mean ± SEM” value (3 mg/kg p.o., at 1 h) was 20.3 ± 5.3 s. For the same molecule, the “Paw withdrawal latency, % change” value (3 mg/kg p.o., at 1 h) was “+43%”, the “Paw Withdrawal Latent … mean ± SEM” value (3 mg/kg p.o., at 2 h) was 20.6 ± 6.3 s and the “Paw withdrawal latency, % change” value (3 mg/kg p.o., at 2 h) was “+15%”. For the same molecule, the “Paw Withdrawal Latent … mean ± SEM” value (3 mg/kg p.o., at 4 h) was 13.8 ± 4.4 s, the “Paw withdrawal latency, % change” value (3 mg/kg p.o., at 4 h) was −30% and the “Paw Withdrawal Latent … mean ± SEM” value (10 mg/kg p.o., at 30 min) was 19.2 ± 6.0 s. For the same molecule, the “Paw withdrawal latency, % change” value (10 mg/kg p.o., at 30 min) was “+67%”, the “Paw Withdrawal Latent … mean ± SEM” value (10 mg/kg p.o., at 1 h) was 15.1 ± 4.5 s and the “Paw withdrawal latency, % change” value (10 mg/kg p.o., at 1 h) was “+6%”. For the same molecule, the “Paw Withdrawal Latent … mean ± SEM” value (10 mg/kg p.o., at 2 h) was 16.1 ± 5.1 s, the “Paw withdrawal latency, % change” value (10 mg/kg p.o., at 2 h) was −10% and the “Paw Withdrawal Latent … mean ± SEM” value (10 mg/kg p.o., at 4 h) was 26.1 ± 5.4 s. The “Paw withdrawal latency, % change” value (10 mg/kg p.o., at 4 h) was “+32%”, the “Paw Withdrawal Latent … mean ± SEM” value (30 mg/kg p.o., at 30 min) was 33.3 ± 5.5 s and the “Paw withdrawal latency, % change” value (30 mg/kg p.o., at 30 min) was “+190%”. For the same molecule, the “Paw Withdrawal Latent … mean ± SEM” value (30 mg/kg p.o., at 1 h) was 29.0 ± 7.3 s, the “Paw withdrawal latency, % change” value (30 mg/kg p.o., at 1 h) was “+104%” and the “Paw Withdrawal Latent … mean ± SEM” value (30 mg/kg p.o., at 2 h) was 16.9 ± 5.0 s. For the same molecule, the “Paw withdrawal latency, % change” value (30 mg/kg p.o., at 2 h) was −6%, the “Paw Withdrawal Latent … mean ± SEM” value (30 mg/kg p.o., at 4 h) was 19.3 ± 5.8 s and the “Paw withdrawal latency, % change” value (30 mg/kg p.o., at 4 h) was −2%. The “paw withdrawal latency after thermal stimulation in the lesioned paw (result in words)” value (30 mg/kg, at 30 minutes) was “significant increase”.
